Measurements as given in publication PMC9021288 (Nature Communications, 2022).
“And” between values parts separate entries of the source, which are not always exact repeats. Equal entries are not always repeated.

Tests used:
[1] = tested on: AcAS-cKD P. falciparum; experiment: Drug sensitivity of AcAS conditional knockdown parasites; assay type: cell-based, Plasmodium falciparum; conditions: […] vs 500 nM aTc
Protocol: Replication assays were performed using a SYBR Green method as described previously. Briefly, asynchronous parasites were diluted to 0.83% parasitemia, 3% hematocrit in 30 µl medium, and added to 30 µl of diluted compounds in medium (0.1% DMSO final concentration) in black 384-wells plates. After a 72-h incubation, 30 µl of SYBR Green diluted in lysis buffer was added according to the manufacturer’s protocol (Life Technologies). Fluorescence intensity was measured on a BioTek Synergy 2 Plate Reader after 1-h incubation and was normalized to a DMSO control (100% growth) and DHA- or epoxomicin-treatment (no growth). […] Parasite survival was assessed by flow cytometry on an Accuri C6 (BD Biosciences) with BD C6 Plus software using SYBR Green and MitoTracker Deep Red FM (Life Technologies) as nuclear stain and vital dye, respectively, and data were analyzed using FlowJo (10.5.0). […] Luminescence was measured after 72 h using the Renilla-Glo(R) Luciferase Assay System (Promega E2750) and the GlomAX® Discover Multimode Microplate Reader (Promega). The luminescence values were normalized to DMSO vehicle (100% growth) and 200 nM chloroquine-treated (no growth) samples as controls.

[2] = tested on: P. falciparum NF54 female gametocytes; experiment: Dual gamete formation assay, female; assay type: cell-based, Plasmodium falciparum; conditions: read-out: IC50 female gametocyte activation
Protocol: After a 48-h incubation, gamete formation was stimulated by a drop in temperature (from 37 °C to 26 °C), and the addition of xanthurenic acid (2.5 µM). At 20 min after induction, exflagellation was recorded by automated time-lapse microscopy. After data collection, the plate was returned to a 26 °C incubator and incubated for 24 h. Female gamete formation was assessed by live staining with a Cy3-labelled anti-Pfs25 monoclonal antibody (1:2222) and recorded by automated microscopy.

[3] = Blood to plasma ratio, mouse
[4] = Pharmacokinetics in rats; assay type: in vivo, Sprague Dawley rats
Protocol: (§1) Subsequently, samples were spun down at 1640 g for 5-10 min at 4 °C within 30 min after collection and plasma was collected. […] Urine was collected following an intravenous dose in both rat and dog, allowing renal clearance to be estimated. Human renal clearance was estimated from dog renal clearance as previously described[40] and other human PK parameters were predicted using allometric scaling and/or in vitro clearance data. PK parameters were calculated by naïve pooled approach using WinNonLin software (Phoenix, version 6.3).

[5] = Human PK prediction (allometry, in vitro clearance, GastroPlus)
Protocol: as §1, with “A blood sample from the saphenous vein was collected into heparinized capillary tubes at multiple intervals between 0.25 and 24 h after dosing. Subsequently,” for “Subsequently,”

Compound: C[C@@H](CNC(=O)[C@H](O)C(C)(C)CO)NC(=O)c1cc(F)c(F)cc1F [MMV693183]
- IC50 decrease upon knockdown (low aTc) [1]: 5 fold
- IC50 [2]: 12 nM
- B:P [3]: 0.98
- Observed hepatic/ predicted hepatic ([4]; Rat): 1.0
- Observed total-renal = observed hepatic ([4]; Rat): 13.5 mL/min/kg
- Predicted hepatic plasma clearance ([4]; Rat): 13.3 mL/min/kg
- Norm. conc i.v. ([4]; Rat, Time (hrs) 0): 0 ng/mL
- Norm. conc i.v. ([4]; Rat, Time (hrs) 0.083333): 1040 ng/mL and 843.333 ng/mL
- Norm. conc i.v. ([4]; Rat, Time (hrs) 0.25): 746.667 ng/mL and 613.333 ng/mL and 566.667 ng/mL
- Norm. conc i.v. ([4]; Rat, Time (hrs) 0.5): 490 ng/mL and 406.667 ng/mL and 376.667 ng/mL
- Norm. conc i.v. ([4]; Rat, Time (hrs) 1): 217.333 ng/mL and 175 ng/mL and 167 ng/mL
- Norm. conc i.v. ([4]; Rat, Time (hrs) 2): 53.3333 ng/mL and 56.3333 ng/mL and 51.6667 ng/mL
- Norm. conc i.v. ([4]; Rat, Time (hrs) 4): 21.4 ng/mL and 17.9 ng/mL and 18.1 ng/mL
- Norm. conc p.o. ([4]; Rat, Time (hrs) 0): 0 ng/mL
- Norm. conc p.o. ([4]; Rat, Time (hrs) 0.25): 726.667 ng/mL and 573.333 ng/mL and 746.667 ng/mL
- Norm. conc p.o. ([4]; Rat, Time (hrs) 0.5): 686.667 ng/mL and 511.333 ng/mL and 591.333 ng/mL
- Norm. conc p.o. ([4]; Rat, Time (hrs) 1): 380.667 ng/mL and 303.333 ng/mL and 362 ng/mL
- Norm. conc p.o. ([4]; Rat, Time (hrs) 4): 22.4667 ng/mL and 18.8 ng/mL and 29.5 ng/mL
- Norm. conc p.o. ([4]; Rat, Time (hrs) 8): 12.2 ng/mL and 7.667 ng/mL and 10.6333 ng/mL
- AUC0-∞ ([4]; i.v. 3 mg/kg, mean): 2398.4 ng·h/mL
- AUClast ([4]; i.v. 3 mg/kg, mean): 2394.8 ng·h/mL
- C0 ([4]; i.v. 3 mg/kg, mean): 3245.1 ng/mL
- Kel ([4]; i.v. 3 mg/kg, mean): 0.22 h⁻¹
- Vss_obs ([4]; i.v. 3 mg/kg, mean): 1.9624 L/kg
- CLtotal ([4]; i.v. 3 mg/kg, mean, 3 mg/kg): 21.1 mL/min/kg and 21.14 mL/min/kg and 21 mL/min/kg
- T1/2 ([4]; i.v. 3 mg/kg, mean, 3 mg/kg): 3.1 h and 3.13 h
- AUC0-∞ ([4]; p.o. 30 mg/kg, mean): 29077.1 ng·h/mL
- AUClast ([4]; p.o. 30 mg/kg, mean): 29063.9 ng·h/mL
- CLtotal ([4]; p.o. 30 mg/kg, mean): 17.57 mL/min/kg
- Cmax ([4]; p.o. 30 mg/kg, mean): 20466.7 ng/mL
- Kel ([4]; p.o. 30 mg/kg, mean): 0.27 h⁻¹
- T1/2 ([4]; p.o. 30 mg/kg, mean): 2.57 h
- Tmax ([4]; p.o. 30 mg/kg, mean): 0.25 h
- %F ([4]; p.o. 30 mg/kg, mean, 30 mg/kg): 121% and 121.24%
- biopharmaceutical classification system class [5]: class I
- estimated human total clearance ([5]; allometry with MLP correction): 1.8 mL/min/kg
- CL, total ([5]; human predicted): 1.11 mL/min/kg
- V1 ([5]; human predicted): 0.843 L/kg
- V2 ([5]; human predicted): 1.97 L/kg
- Vss ([5]; human predicted): 2.81 L/kg
- half-life ([5]; human predicted): 32.4 h
- CL, renal ([5]; human predicted from dog renal clearance): 0.60 mL/min/kg
- CL, hepatic ([5]; human predicted from in vitro hepatocyte clearance): 0.51 mL/min/kg
- allometric clearance exponent ([5]; simple allometry): 0.967
